Experimental data from patent US20030050237A1, “Prolonged delivery of peptides” (Scios Inc., priority 1993, published 2003).

Test: Insulinotropin infusion, plasma glucose levels in patients with NIDDM
Format: in vivo
Details: raising peptide around meal time alone, for periods of up to one hour

## His-Asp-Glu-Phe-Glu-Arg-His-Ala-Glu-Gly-Thr-Phe-Thr-Ser-Asp-Val-Ser-Ser-Tyr-Leu-Glu-Gly-Gln-Ala-Ala-Lys-Glu-Phe-Ile-Ala-Trp-Leu-Val-Lys-Gly-Arg-Gly [GLP-1]
  glycemic control: will not adequately control the glucose levels
